In article PMC10458458, “Characterization of Anticancer Effects of the Analogs of DJ4, a Novel Selective Inhibitor of ROCK and MRCK Kinases” (Pharmaceuticals, 2023):

What was measured:
Assay in all cases: NCI-60 screen (SRB)
Type in all cases: cell-based, human
786-0 = 786-0 (Renal Cancer), 10 µM, 48 h; negative = cell death vs time zero
Description: (§1) The selected active compounds were screened at NCI, as a part of In Vitro Cell Line Screening Project (IVCLSP), for their effect on cell growth in 60 different cancer cell lines. The 60 human cancer cell line panel included leukemia, melanoma, non-small cell lung cancer, colon, central nervous system (CNS), ovarian, renal, prostate, and breast cancer cell lines. The detailed procedure and applications of NCI-60 cell line screening can be found at https://dtp.cancer.gov/discovery_development/nci-60/default.htm (accessed on 9 January 2023). Briefly, cells were plated in 96-well plates and incubated for 24 h. One set of cells was fixed with trichloroacetic acid at time 0 h (Tz), and SRB (sulphorhodamine B) assays were performed to quantify the cells. The remaining set of cells were treated with 10 µM single concentration of each compound and incubated for 48 h (Te) after which the cells were fixed, and the SRB assays were performed. Data are presented as percent growth relative to the control as 100% according to the following calculations:
(§2) When Te >/= Tz. Growth(%)=Te−Tz/C−Tz∗100 and when Te < Tz. (1) Growth(%)=Te−Tz/Tz∗100
(§3) Values between 0–100 indicate cell growth, zero (0) indicates no cell growth, values < 0 indicate cell death.

A498 = A498 (Renal Cancer), 10 µM, 48 h; negative = cell death vs time zero
Description: as §1, §2, §3

A549/ATCC = A549/ATCC (Non-Small Cell Lung Cancer), 10 µM, 48 h; negative = cell death vs time zero
Description: as §1, §2, §3

COLO 205 = COLO 205 (Colon Cancer), 10 µM, 48 h; negative = cell death vs time zero
Description: as §1, §2, §3

EKVX = EKVX (Non-Small Cell Lung Cancer), 10 µM, 48 h; negative = cell death vs time zero
Description: as §1, §2, §3

HCC-2998 = settings: for percent cell growth: HCC-2998 (Colon Cancer), negative = cell death vs time zero
Description: as §1, §2, §3

HCT-116 = HCT-116 (Colon Cancer), 10 µM, 48 h; negative = cell death vs time zero
Description: as §1, §2, §3

HOP-92 = HOP-92 (Non-Small Cell Lung Cancer), 10 µM, 48 h; negative = cell death vs time zero
Description: as §1, §2, §3

HS 578T = HS 578T (Breast Cancer), 10 µM, 48 h; negative = cell death vs time zero
Description: as §1, §2, §3

HT29 = HT29 (Colon Cancer), 10 µM, 48 h; negative = cell death vs time zero
Description: as §1, §2, §3

K-562 = settings: 10 µM, 48 h; for percent cell growth: K-562 (Leukemia), negative = cell death vs time zero; for increase in cell number: K-562 (leukemia)
Description: as §1, §2, §3

MALME-3M = settings: 10 µM, 48 h; for percent cell growth: MALME-3M (Melanoma), negative = cell death vs time zero
Description: as §1, §2, §3

MCF7 = MCF7 (Breast Cancer), 10 µM, 48 h; negative = cell death vs time zero
Description: as §1, §2, §3

MDA-MB-435 = MDA-MB-435 (Melanoma), 10 µM, 48 h; negative = cell death vs time zero
Description: as §1, §2, §3

MOLT-4 = MOLT-4 (Leukemia), 10 µM, 48 h; negative = cell death vs time zero
Description: as §1, §2, §3

NCI/ADR-RES = settings: for percent cell growth: NCI/ADR-RES (Ovarian Cancer), negative = cell death vs time zero; for percent cell growth / increase in cell number: 10 µM, 48 h; for increase in cell number: NCI/ADR-RES (ovarian)
Description: as §1, §2, §3

OVCAR-3 = OVCAR-3 (Ovarian Cancer), 10 µM, 48 h; negative = cell death vs time zero
Description: as §1, §2, §3

OVCAR-4 = OVCAR-4 (Ovarian Cancer), 10 µM, 48 h; negative = cell death vs time zero
Description: as §1, §2, §3

OVCAR-5 = OVCAR-5 (Ovarian Cancer), 10 µM, 48 h; negative = cell death vs time zero
Description: as §1, §2, §3

OVCAR-8 = OVCAR-8 (Ovarian Cancer), 10 µM, 48 h; negative = cell death vs time zero
Description: as §1, §2, §3

RPMI-8226 = settings: 10 µM, 48 h; for percent cell growth: RPMI-8226 (Leukemia), negative = cell death vs time zero; for increase in cell number: RPMI-8226 (leukemia)
Description: as §1, §2, §3

SF-539 = settings: 10 µM, 48 h; for percent cell growth: SF-539 (CNS Cancer), negative = cell death vs time zero
Description: as §1, §2, §3

SK-OV-3 = SK-OV-3 (Ovarian Cancer), 10 µM, 48 h; negative = cell death vs time zero
Description: as §1, §2, §3

SN12C = SN12C (Renal Cancer), 10 µM, 48 h; negative = cell death vs time zero
Description: as §1, §2, §3

TK-10 = TK-10 (Renal Cancer), 10 µM, 48 h; negative = cell death vs time zero
Description: as §1, §2, §3

UACC-257 = UACC-257 (Melanoma), 10 µM, 48 h; negative = cell death vs time zero
Description: as §1, §2, §3

UO-31 = UO-31 (Renal Cancer), 10 µM, 48 h; negative = cell death vs time zero
Description: as §1, §2, §3

Compound	percent cell growth (786-0)	percent cell growth (A498)	percent cell growth (A549/ATCC)	percent cell growth (COLO 205)	percent cell growth (EKVX)	percent cell growth (HCC-2998; 10 µM, 48 h)	percent cell growth (HCT-116)	percent cell growth (HOP-92)	percent cell growth (HS 578T)	percent cell growth (HT29)	percent cell growth (K-562)	percent cell growth (MALME-3M)	percent cell growth (MCF7)	percent cell growth (MDA-MB-435)	percent cell growth (MOLT-4)	percent cell growth (NCI/ADR-RES)	percent cell growth (OVCAR-3)	percent cell growth (OVCAR-4)	percent cell growth (OVCAR-5)	percent cell growth (OVCAR-8)	other results
C=CC/N=C1\NC(=O)/C(=C\c2c[nH]c3ncccc23)S1 [DJ-Allyl]	4.4%	−34.5%	13.2%	−20.1%	30.5%	44.6%	6.3%	−1.9%	−15.0%	26.4%	42.1%	40.2%	3.5%	21.1%	5.8%	42.1%	−7.0%	34.7%	5.3%	10.7%	increase in cell number (HCC-2998; HCC-2998 (colon), 10 µM, 48 h): ~ 40%; increase in cell number (K-562): ~ 40%; increase in cell number (MALME-3M; MALME-3M (melanoma)): ~ 40%; increase in cell number (NCI/ADR-RES): ~ 40%; percent cell growth (RPMI-8226): 42.7%; increase in cell number (RPMI-8226): ~ 40%; percent cell growth (SF-539): −66.2%; reduction in cell number (SF-539; SF-539 (CNS)): 60%; percent cell growth (SK-OV-3): −7.0%; percent cell growth (SN12C): 24.0%; percent cell growth (TK-10): 1.7%; percent cell growth (UACC-257): 9.6%; percent cell growth (UO-31): 3.1%
CC/N=C1\NC(=O)/C(=C\c2c[nH]c3ncccc23)S1 [DJE4]	3.0%	−54.2%	11.1%	−33.3%	14.1%	10.2%	4.0%	4.4%	−15.1%	4.3%	26.3%	−6.2%	4.0%	−0.8%	−6.0%	29.7%	−2.1%	19.5%	8.7%	6.3%	increase in cell number (K-562): 26%; increase in cell number (NCI/ADR-RES): 29%; percent cell growth (RPMI-8226): 29.1%; increase in cell number (RPMI-8226): 29%; percent cell growth (SF-539): −64.2%; percent cell growth (SK-OV-3): −10.3%; percent cell growth (SN12C): 12.6%; percent cell growth (TK-10): −3.8%; percent cell growth (UACC-257): −15.9%; percent cell growth (UO-31): 7.5%
O=C1N/C(=N\CCc2ccccc2)S/C1=C/c1c[nH]c2ncccc12 [DJ4]	9.0%	−7.6%	19.1%	4.8%	46.0%	53.9%	9.7%	−9.7%	8.8%	30.6%	29.9%	30.6%	4.0%	21.0%	11.4%	72.9%	5.6%	23.8%	37.8%	14.0%	IC50 (HCC-2998; Homo sapiens, HCC-2998 colon cancer cells, NCI-60 screen): > 10 µM; IC50 (NCI/ADR-RES; Homo sapiens, NCI/ADR-RES ovarian cancer cell line, NCI-60 screen): > 10 µM; percent cell growth (RPMI-8226): 39.2%; percent cell growth (SF-539): 0.4%; percent cell growth (SK-OV-3): 27.0%; percent cell growth (SN12C): 15.9%; percent cell growth (TK-10): 34.2%; percent cell growth (UACC-257): 14.6%; percent cell growth (UO-31): 25.2%
Cl.O=C1NC(=NCCc2ccccc2)SC1=Cc1c[nH]c2ncccc12 (mixture of isomers) [DJ4-HCl]	19.7%	−21.3%	8.1%	−6.8%	40.9%	66.2%	5.8%	11.8%	8.8%	27.8%	28.5%	44.8%	2.0%	18.5%	8.6%	58.4%	3.4%	32.3%	18.1%	9.7%	percent cell growth (RPMI-8226): 38.7%; percent cell growth (SF-539): −37.2%; percent cell growth (SK-OV-3): 2.1%; percent cell growth (SN12C): 33.5%; percent cell growth (TK-10): 18.8%; percent cell growth (UACC-257): −1.7%; percent cell growth (UO-31): 36.6%
